Here are results for eight molecules from patent US20240336981A1, “PANELS AND METHODS FOR DIAGNOSING AND TREATING LUNG CANCER” (The Broad Institute, Inc., priority 2021, published 2024).

In assay [1] the test system is lung adenocarcinoma (LUAD) cell lines. The experiment in a line: Proliferation assay (IncuCyte confluency). The conditions noted are these: for proliferation (response) of S3 cell lines compared to the S4 and unassigned cell lines: S3 lines HCC78, HCC827, NCIH1975, NCIH1838, 4 days. It is filed as cell-based. The source says:
lung adenocarcinoma (LUAD) cell lines were used (HCC78, HCC827, NCIH1975, NCIH1838, NCIH1395, NCIH1833, NCIH1755, ABC1, CALU3). Tests for mycoplasma contamination were negative. Cells were maintained in RPMI 1640 medium supplemented with 10% fetal bovine serum and 1% penicillin-streptomycin.
The media and drugs were replenished every 2-3 days. Continuous cell growth was monitored in 96-well plates every 3 hr for 4 days using the IncuCyte Kinetic Imaging System. The relative confluency was analyzed using IncuCyte software. The reported response percentage for each cell line was calculated as the percent of confluency compared to their DMSO treated counterpart. Proliferation assays were repeated 4 times.

A further assay has as its system PD-L1. In words: Immunofluorescence staining with anti-PD-L1 antibody. The class given is cell-based. The conditions noted are these: tivantinib-treated cells vs controls; all subtypes; quantified with ImageJ. As for the experimental part:
The following antibody was used for immunofluorescence staining—Recombinant Alexa Fluor® 488 Anti-PD-L1 antibody (ab209959). […] Cells were then fixed in 4% paraformaldehyde for 10 min and washed twice in cold PBS. Fluor® 488 Anti-PD-L1 antibody was added for 1 hr incubation in a light protected environment at room temperature followed by staining nuclei with DAPI. Fluorescence images were captured using Invitrogen™ EVOS™ FL Imaging System by Thermo Fisher Scientific. The fluorescent increase was further quantified using ImageJ software.

Assay [2] concerns mutant forms of EGFR (T790M, L858R, and exon 19 deletion). The following applies: exon 19 deletion vs wild-type; cited from earlier work.
The next assay has as its system CDK3 and CDK7. The conditions noted are these: cited from earlier work.
The subject of a further assay is non-CDK kinases. The following applies: with the exception of GSK3beta; cited from earlier work.
The target in another assay is HER4 (Homo sapiens, UniProt Q15303). The following applies: in vitro; cited from earlier work.
Chain of HER4 (Q15303 26-1308): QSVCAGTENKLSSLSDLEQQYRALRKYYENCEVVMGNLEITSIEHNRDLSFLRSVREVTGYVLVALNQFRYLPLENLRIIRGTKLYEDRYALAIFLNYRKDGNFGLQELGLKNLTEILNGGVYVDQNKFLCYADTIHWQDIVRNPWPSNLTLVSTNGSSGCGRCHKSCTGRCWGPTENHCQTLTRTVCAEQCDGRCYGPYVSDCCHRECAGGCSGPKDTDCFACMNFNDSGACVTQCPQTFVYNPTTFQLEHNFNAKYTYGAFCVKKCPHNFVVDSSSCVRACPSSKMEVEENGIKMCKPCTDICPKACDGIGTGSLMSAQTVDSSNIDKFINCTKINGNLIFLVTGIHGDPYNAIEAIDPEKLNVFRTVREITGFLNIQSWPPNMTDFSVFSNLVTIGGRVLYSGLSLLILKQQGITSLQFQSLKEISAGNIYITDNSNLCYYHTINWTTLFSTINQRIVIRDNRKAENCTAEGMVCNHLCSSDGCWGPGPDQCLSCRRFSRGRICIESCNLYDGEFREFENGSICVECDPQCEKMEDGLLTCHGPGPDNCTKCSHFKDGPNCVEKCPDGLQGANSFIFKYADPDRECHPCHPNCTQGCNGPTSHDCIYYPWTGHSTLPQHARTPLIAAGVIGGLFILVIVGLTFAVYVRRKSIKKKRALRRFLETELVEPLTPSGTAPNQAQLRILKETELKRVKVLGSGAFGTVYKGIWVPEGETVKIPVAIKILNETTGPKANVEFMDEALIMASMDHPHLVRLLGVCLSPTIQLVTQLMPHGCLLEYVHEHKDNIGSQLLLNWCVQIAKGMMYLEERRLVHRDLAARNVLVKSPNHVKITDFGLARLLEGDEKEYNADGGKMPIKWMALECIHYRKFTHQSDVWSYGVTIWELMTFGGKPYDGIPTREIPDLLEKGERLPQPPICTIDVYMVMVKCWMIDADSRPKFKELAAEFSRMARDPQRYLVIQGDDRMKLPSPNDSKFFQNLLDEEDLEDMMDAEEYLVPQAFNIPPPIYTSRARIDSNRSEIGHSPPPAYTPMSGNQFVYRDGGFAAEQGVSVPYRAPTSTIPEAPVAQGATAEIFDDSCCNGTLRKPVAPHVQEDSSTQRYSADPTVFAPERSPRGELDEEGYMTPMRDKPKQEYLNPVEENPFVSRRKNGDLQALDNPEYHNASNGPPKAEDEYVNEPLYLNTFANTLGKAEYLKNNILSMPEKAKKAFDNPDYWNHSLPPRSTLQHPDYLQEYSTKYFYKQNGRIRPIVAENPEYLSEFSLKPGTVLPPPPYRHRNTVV
A further assay concerns the target BLK (Homo sapiens, UniProt P51451). The following applies: in vitro; cited from earlier work.
The next assay concerns the target HER2 (Homo sapiens, UniProt P04626). The conditions noted are these: in vitro; cited from earlier work.
The subject of assay [3] is tumor-bearing animal models such as breast, colon, lung cancers, and hepatocellular carcinoma. The following applies: in vivo; cited from earlier work.
The target in a further assay is EGFR (Homo sapiens, UniProt P00533). The conditions noted are these: cited from earlier work.
The target of a further assay is HER-3 (Homo sapiens, UniProt P21860). The conditions noted are these: cited from earlier work.
Chain of HER-3 (P21860 20-1342): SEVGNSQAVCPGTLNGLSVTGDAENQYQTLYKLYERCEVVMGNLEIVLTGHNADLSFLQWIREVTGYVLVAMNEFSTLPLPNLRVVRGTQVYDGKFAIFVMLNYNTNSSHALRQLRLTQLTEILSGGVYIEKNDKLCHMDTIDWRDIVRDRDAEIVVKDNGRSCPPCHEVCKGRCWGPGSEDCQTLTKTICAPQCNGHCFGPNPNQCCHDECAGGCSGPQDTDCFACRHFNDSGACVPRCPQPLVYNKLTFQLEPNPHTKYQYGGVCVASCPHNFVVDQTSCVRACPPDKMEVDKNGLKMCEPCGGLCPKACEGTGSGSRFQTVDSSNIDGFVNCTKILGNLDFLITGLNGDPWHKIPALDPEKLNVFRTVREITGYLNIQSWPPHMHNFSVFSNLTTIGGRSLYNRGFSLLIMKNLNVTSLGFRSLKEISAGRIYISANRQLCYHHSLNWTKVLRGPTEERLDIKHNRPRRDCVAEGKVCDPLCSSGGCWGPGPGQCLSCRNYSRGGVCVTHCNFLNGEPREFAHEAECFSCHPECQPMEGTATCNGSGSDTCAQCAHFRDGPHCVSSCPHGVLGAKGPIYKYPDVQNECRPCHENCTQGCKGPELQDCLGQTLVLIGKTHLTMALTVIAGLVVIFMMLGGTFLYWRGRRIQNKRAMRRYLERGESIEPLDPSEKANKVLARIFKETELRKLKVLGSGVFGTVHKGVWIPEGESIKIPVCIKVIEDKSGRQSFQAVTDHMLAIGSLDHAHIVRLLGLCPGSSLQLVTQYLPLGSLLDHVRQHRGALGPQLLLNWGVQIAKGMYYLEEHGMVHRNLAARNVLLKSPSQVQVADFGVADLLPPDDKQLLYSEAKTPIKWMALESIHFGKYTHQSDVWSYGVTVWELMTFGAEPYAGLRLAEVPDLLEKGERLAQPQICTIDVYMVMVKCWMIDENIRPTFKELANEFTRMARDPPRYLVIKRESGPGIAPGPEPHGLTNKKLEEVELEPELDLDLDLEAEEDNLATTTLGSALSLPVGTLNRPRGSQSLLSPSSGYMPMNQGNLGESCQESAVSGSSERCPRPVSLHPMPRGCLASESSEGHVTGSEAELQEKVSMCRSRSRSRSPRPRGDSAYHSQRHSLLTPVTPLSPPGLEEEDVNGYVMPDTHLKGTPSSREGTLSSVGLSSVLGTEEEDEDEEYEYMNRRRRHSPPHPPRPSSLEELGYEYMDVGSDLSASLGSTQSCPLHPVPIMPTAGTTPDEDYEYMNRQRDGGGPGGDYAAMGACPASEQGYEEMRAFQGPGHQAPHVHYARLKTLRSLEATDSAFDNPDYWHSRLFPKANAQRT

Chain of BLK (P51451 whole entry): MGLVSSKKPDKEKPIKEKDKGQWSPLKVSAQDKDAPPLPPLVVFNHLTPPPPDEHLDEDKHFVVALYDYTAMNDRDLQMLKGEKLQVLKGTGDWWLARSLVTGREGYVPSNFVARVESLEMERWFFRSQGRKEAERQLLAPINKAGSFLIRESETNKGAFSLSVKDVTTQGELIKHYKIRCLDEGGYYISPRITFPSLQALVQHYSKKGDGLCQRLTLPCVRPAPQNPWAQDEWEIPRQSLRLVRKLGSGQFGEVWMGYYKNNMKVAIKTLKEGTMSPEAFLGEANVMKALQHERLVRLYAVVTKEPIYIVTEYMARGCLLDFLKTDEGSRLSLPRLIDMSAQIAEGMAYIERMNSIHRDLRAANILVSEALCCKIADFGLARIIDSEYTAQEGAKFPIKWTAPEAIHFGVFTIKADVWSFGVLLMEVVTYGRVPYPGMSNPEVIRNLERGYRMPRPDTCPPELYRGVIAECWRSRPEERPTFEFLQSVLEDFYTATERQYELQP
Chain of HER2 (P04626 23-1255): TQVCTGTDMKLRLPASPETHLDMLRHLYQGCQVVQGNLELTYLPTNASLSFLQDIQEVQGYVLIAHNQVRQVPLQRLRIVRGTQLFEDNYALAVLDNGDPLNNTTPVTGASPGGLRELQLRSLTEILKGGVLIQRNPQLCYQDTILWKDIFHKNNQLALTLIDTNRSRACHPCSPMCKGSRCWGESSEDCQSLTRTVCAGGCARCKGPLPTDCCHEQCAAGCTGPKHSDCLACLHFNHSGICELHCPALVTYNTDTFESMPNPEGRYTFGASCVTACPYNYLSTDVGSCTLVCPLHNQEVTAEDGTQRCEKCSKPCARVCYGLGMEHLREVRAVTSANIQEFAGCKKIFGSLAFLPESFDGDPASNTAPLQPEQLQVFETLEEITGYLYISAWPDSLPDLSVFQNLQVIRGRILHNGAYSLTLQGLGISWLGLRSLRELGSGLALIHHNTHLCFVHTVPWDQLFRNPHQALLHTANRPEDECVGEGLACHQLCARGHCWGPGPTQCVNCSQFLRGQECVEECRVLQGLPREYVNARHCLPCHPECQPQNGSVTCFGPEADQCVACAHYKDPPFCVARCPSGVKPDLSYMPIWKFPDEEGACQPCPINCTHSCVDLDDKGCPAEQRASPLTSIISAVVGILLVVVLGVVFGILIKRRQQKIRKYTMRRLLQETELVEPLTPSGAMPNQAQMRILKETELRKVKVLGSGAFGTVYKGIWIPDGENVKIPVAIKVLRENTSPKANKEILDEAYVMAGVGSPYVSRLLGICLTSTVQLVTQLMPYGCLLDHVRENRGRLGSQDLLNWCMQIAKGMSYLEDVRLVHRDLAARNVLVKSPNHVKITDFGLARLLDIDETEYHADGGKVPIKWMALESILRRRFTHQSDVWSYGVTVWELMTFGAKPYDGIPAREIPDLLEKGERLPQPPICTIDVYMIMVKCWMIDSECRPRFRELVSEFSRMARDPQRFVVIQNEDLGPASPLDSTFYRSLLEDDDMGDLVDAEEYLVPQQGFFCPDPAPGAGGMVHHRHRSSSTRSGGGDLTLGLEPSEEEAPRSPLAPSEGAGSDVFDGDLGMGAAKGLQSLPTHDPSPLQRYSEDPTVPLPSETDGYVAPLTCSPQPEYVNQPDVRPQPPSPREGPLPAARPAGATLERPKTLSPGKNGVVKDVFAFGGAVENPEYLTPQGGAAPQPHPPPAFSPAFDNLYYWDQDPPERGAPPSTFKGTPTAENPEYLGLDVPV

Turning to `O=C1NC(=O)[C@@H](c2cn3c4c(cccc24)CCC3)[C@@H]1c1c[nH]c2ccccc12` [Tivantinib], the “response of S3 compared to the other assigned groups” value in [1] (Tivantinib 3 μM, 4-day proliferation assay, confluency vs DMSO) is recorded as “significantly increased response”. In addition, the “PD-L1 levels in response to c-MET inhibition” value in the assay on PD-L1 was “significant increase”.

With `C=CC(=O)Nc1cc(Nc2nccc(-c3cn(C)c4ccccc34)n2)c(OC)cc1N(C)CCN(C)C` [Osimertinib], the “concentrations for binding mutant EGFR lower than wild-type” value in assay [2] is given as “approximately 9 fold”.

As to `CC(=O)c1c(C)c2cnc(Nc3ccc(N4CCNCC4)cn3)nc2n(C2CCCC2)c1=O` [Palbociclib], in assay [1] (Palbociclib 11 nM (CDK4 concentration), confluency vs DMSO), the “proliferation (response) of S3 cell lines compared to the S4 and unassigned cell lines” value is on record as “significantly lower proliferation (higher response)”. Besides, the “proliferation at higher doses” value in assay [1] (higher doses of palbociclib (CDK4/6 concentration 16 nM), all cell lines) is reported as “inhibited proliferation in all cell lines”.

On to `O=C(NC1CCNCC1)c1n[nH]cc1NC(=O)c1c(Cl)cccc1Cl` [AT7519], for which the “potency against other CDKs tested” value in the assay with CDK3 and CDK7 was “lower potency”. Further, the “activity against non-CDK kinases tested” value with non-CDK kinases is “inactive”.

Broadly, the IC50 is the point on the concentration scale where inhibition reaches its midpoint. As to `C=CC(=O)Nc1cc(Nc2ncc(C(=O)OC(C)C)c(-c3cn(C)c4ccccc34)n2)c(OC)cc1N(C)CCN(C)C` [Mobocertinib], the half-maximal inhibitory concentration (IC50) on HER4, at BLK and at HER2 was less than 2 nM throughout.

Consider `Cc1cccc(-c2nn3c(c2-c2ccnc4ccc(C(N)=O)cc24)CCC3)n1` [Galunisertib], for which the antitumor activity result in assay [3] was “antitumor activity”.

For the molecule `CCNc1cc(N[C@H]2CC[C@H](O)CC2)nc(Nc2ccc3c(ccn3Cc3ccccc3)c2)n1` [CINK4], the “proliferation (response) of S3 cell lines compared to the S4 and unassigned cell lines” value in assay [1] (CDK4/6 Inhibitor IV 1.5 μM (CDK4 specific concentration), confluency vs DMSO) was “significantly lower proliferation (higher response)”.

With `CNC(=O)c1ccc(-c2cnc3ncc(Cc4ccc5ncccc5c4)n3n2)cc1F` [Capmatinib], the “activity against EGFR” value on EGFR was “ATP-competitive small molecule. Targets - c-Met. Little activity against EGFR and HER- 3”. Further, on HER-3, the “activity against HER-3” value was “ATP-competitive small molecule. Targets - c-Met. Little activity against EGFR and HER- 3”.
